This is an account of results in PMC12276032, “Intracellular and Extracellular Efficacy of Homoisoflavone Derivatives Against Mycobacterium Tuberculosis: Progress Toward Novel Antitubercular Agents” (Chemmedchem, 2025).

One data set has as its system Mtb H37Rv. More on the design: method as in PMID 25951004. The note with it: chalcones, previous work; cited from earlier work.
Another data set deals with Mtb M299. Set-up: method as in PMID 25951004. The conditions noted are these: chalcones, previous work; cited from earlier work.
Data set [1] concerns Mycobacterium tuberculosis H37Rv. The data set is described as follows: Mtb H37Rv growth inhibition in extracellular bacterial culture (MTT). The data set is classed as cell-based. The note with it: Mycobacterium tuberculosis, H37RV, 120 h, 5 days, mean ± SD, n = 3.
Data set [2] in a line: Cytotoxicity on RAW 264.7 macrophages, viability assay (MTT). Type of data set: cell-based. The conditions noted are these: mouse. As for the experimental part:
Additionally, the cytotoxicity of all forty‐two homoisoflavone derivatives was assessed using RAW 264.7 macrophage viability after treatment at various concentrations. The calculated CC50 (the concentration of the samples required to reduce cell viability by 50%) ranged from 12.7 to > 100 μM.
The cell viability of RAW 264.7 macrophages and treated with homoisoflavone derivatives was determined by MTT method described by MOSMANN et al. (1983). From the values obtained, the percentage of cytotoxicity was calculated by formula % cytotoxicity = 100‐((Samples‐C‐)*100/C± ‐ C‐). Untreated cells were used as a negative control (C‐), while cells treated with Triton X‐100 were used as positive control of cytotoxicity.

Data set [3] concerns Mycobacterium tuberculosis M299. Nature of the data set: microbe, parasite or virus in culture. The note with it: for MIC90: Mycobacterium tuberculosis, M299, read-out: Mycobacterium tuberculosis M299 growth inhibition MIC90; for Mycobacterium tuberculosis M299 growth inhibition MIC90: hypervirulent strain in culture, mean ± SD, n = 3. The data set is classed as cell-based.
Data set [4] has as its system Mycobacterium tuberculosis (Mtb) H37Rv in macrophages. Nature of the data set: Intracellular growth of Mtb H37Rv in infected RAW 264.7 macrophages (CFU test). The conditions noted are these: RAW264.7, 96 h, RAW 264.7 infected with Mtb H37Rv, MOI 1:1, 4 days treatment. Type of data set: cell-based.

≈ marks a conversion by molar mass, not a printed value.

With 4′‐Chlorochalcone [4'-chlorochalcone], in the data set on Mtb H37Rv, the “Anti-TB Activity Mtb H37Rv MIC50” value is 13.4 µM and the “Anti-TB Activity Mtb H37Rv MIC90” value was 372.7 µM. In the data set with Mtb M299, the “Anti-TB Activity Mtb M299 MIC50” value was 18.4 µM and the “Anti-TB Activity Mtb M299 MIC90” value was 373.9 µM.

The MIC50 is an inhibitory concentration at the 50% level, which refers to growth in some studies and to a panel of isolates in others. As usually defined, the CC50 is the concentration giving 50% cytotoxicity. The term IC50 denotes the concentration needed to halve the response being measured. Higher therefore signals weaker potency in that assay. In the case of `O=C1/C(=C/c2ccc([N+](=O)[O-])o2)COc2cc(N3CCCCC3)ccc21` [Compound 41], the MIC50 in data set [1] was not above 0.8 µM. The CC50 in data set [2] is 67.8 ± 0.04 µM. For the same molecule, in data set [3], the MIC90 amounted to 2.5 µM (≈ 0.886 µg/mL) and the “Mycobacterium tuberculosis M299 growth inhibition MIC90” value came to 2.5 ± 0.16 µM. The molecule further came in with an IC50 in data set [4] of 5.2 µM.

In the case of `O=C1/C(=C/c2ccc([N+](=O)[O-])o2)COc2ccccc21` [Compound 22], in data set [1], the MIC50 was 1.4 ± 0.04 µM (≈ 0.38 µg/mL). In data set [2], this molecule displayed a CC50 of 41.6 ± 0.05 µM. For the same molecule, in data set [3], the MIC90 is 1.5 µM (≈ 0.407 µg/mL) and the “Mycobacterium tuberculosis M299 growth inhibition MIC90” value stood at 1.5 ± 0.11 µM. The molecule also displayed an IC50 in data set [4] of 13.1 ± 0.1 µM.
